According to patent publication US8748369B2, “Use of targeted nitroxide agents in bone healing” (University of Pittsburgh-Of the Commonwealth System of …, priority 2009, dated 2014):
Where “and” joins values, the source holds several entries; their conditions need not be identical. Identical values can stand only once. Where a SMILES comes first, the peptide text is derived from it. [ ]: non-standard residue; d: D form. The star is where a group is joined. NH(TEMPO-4-yl) = CC1(C)CC(N*)CC(C)(C)N1[O]; Orn = NCCC[C@H](N)C(=O)O; Cbz = O=C(OCc1ccccc1)*; Boc = CC(C)(C)OC(=O)*

Assays:
[1] = test system: KM101 human marrow stromal cells; test: Irradiation survival curves of KM101 cells; type: cell-based
Method: KM101 cells were incubated in media alone or in JP4-039 (10 μM) for one hour before irradiation or 24 hours after irradiation. The cells were irradiated to doses ranging from 0 to 6 Gy and plated in 4 well plates. Seven days later the cells were stained with crystal violet and colonies of greater than 50 cells counted. Cells incubated in JP4-039 either before or after irradiation were more radioresistant as shown by an increased shoulder of n=2.3±0.2 or 2.2±0.2, respectively compared to n of 1.1±0.1for the KM101 cells (p=0.0309 or 0.0386, respectively).

[2] = test system: C57BL/6NHsd mice, tibial bone wounds; test: Unicortical tibial bone wound healing with or without 20 Gy limb irradiation; type: in vivo, mouse
NOD/SCID mice = test: Proposed: human CD34+ cord blood stem cell seeding into irradiated limbs of NOD/SCID mice; settings: mouse, in vivo
Text: Selection and optimization of a GS-nitroxide JP4-039 therapy to enhance human CD34+ cord blood multilineage hematopoietic stem cell progenitor cell seeding into irradiated limbs of NOD/SCID mice that have been prepared by engraftment of human marrow stromal cells.
2. Experiments using the optimal seeding protocol for human KM101 cells into irradiated NOD/SCID mice (anticipated to be those mice receiving MnSOD-PL prior to irradiation, and then injection with KM101-MnSOD/ds-red, supplemented with JP4-039 daily). Mice can then receive intravenous injection of 1×10^5 or 1×10^6 CD34+ LIN− cells from human umbilical cord blood origin. Control cells may be CD34+ LIN+ (differentiated progenitor) cells 10^5 or 10^6 per injection. Groups of 12 mice. These experiments may be carried out in two schedules. • a. […]
In these experiments, mice can be followed and tested at serial time points out to two months after cord blood stem cell transplantation. The percent of human peripheral blood hematopoietic cells can be scored in weekly peripheral blood samples and number of cells forming CFU-GEMM colonies can be tested in explanted bones from sacrificed mice. […]
Experiments in vitro supplementing in co-cultivation culture media the drug JP4-039 daily. […] Stromal cell cultures may be irradiated, cord blood cells added, and cultures scored as above. […]

[3] = test system: mouse embryonic cells (MEC); test: ActD-induced apoptosis in MECs (PS externalization, caspase-3, DNA fragmentation); type: cell-based
Text: Cells that annexin V-positive and PI-negative were considered apoptotic.

mouse embryonic cells = test: Gamma-irradiation dose survival curves of mouse embryonic cells; type: cell-based; settings: 20 μM pre- (10-min) or post-treated (1-h)
Method: Cells were plated in 35-mm Petri dishes with 2 ml culture medium at a density between 100 and 1000 cells per dish. Cells were treated with GS-nitroxide (XJB-5-125) either before (10-min) or after (1-h) γ-irradiation. XJB-5-125 was removed from the medium 4-h post-irradiation. Colonies were fixed and stained with 0.25% crystal violet and 10% formalin (35% v/v) in 80% methanol for 30 min after a 9-day incubation period, and those of ≧50 cells were counted as survivors. The surviving fraction was calculated as the plating efficiency of the samples relative to that of the control.
Cells were pre- (10-min) or post-treated (1-h) with XJB-5-125 (20 μM), which was removed after 4-h incubation period. The surviving fraction was calculated as the plating efficiency of the samples relative to that of the control. The data was fitted to a single-hit multitarget model using SigmaPlot 9.0 (Systat Software). Data presented are the mean±S.E. (n=3).

[4] = test system: 32D cl 3 murine hematopoietic cells; test: Irradiation survival curves of 32D cl 3 cells; type: cell-based, mouse; settings: cells incubated in compound
Method: FIG. 16 illustrates the effect of GS conjugated nitroxide, XJB-5-125, on gamma-irradiation dose survival curves of 32D cl 3 murine hematopoietic cells.
Irradiation survival curves were performed on cells from the 32D cl 3 mouse hematopoietic progenitor cell line, incubated in 10 μM JP4-039 for 1 hour before irradiation, or plated in methycellulose containing 10 μM JP4-030 after irradiation. Cells were irradiated from 0 to 8 Gy, plated in 0.8% methycellulose containing media, and incubated for 7 days at 37° C. Colonies of greater than 50 cells were counted and data analyzed by linear quadratic and single-hit, multi-target models.

| SMILES | n (shoulder on the survival curve) ([1]; 10 μM 24 hours after irradiation) | change in Do ([1]; 10 μM before or after irradiation) | n (shoulder on the survival curve) ([1]; 10 μM one hour before irradiation) | bone wound healing in the absence of RT ([2]; 0 Gy) | Hole Diameter, mean ± SEM ([2]; 0 Gy, Day 7 post-drilling) | Hole Diameter, mean ± SEM ([2]; 0 Gy, Day 14 post-drilling) | Hole Diameter, mean ± SEM ([2]; 0 Gy, Day 21 post-drilling) | Hole Diameter, mean ± SEM ([2]; 0 Gy, Day 28 post-drilling) | Hole Diameter, mean ± SEM ([2]; 20 Gy, Day 7 post-drilling) | Hole Diameter, mean ± SEM ([2]; 20 Gy, Day 14 post-drilling) | Hole Diameter, mean ± SEM ([2]; 20 Gy, Day 21 post-drilling) | Hole Diameter, mean ± SEM ([2]; 20 Gy, Day 28 post-drilling) | RT-induced delay in osseus wound healing ([2]; given prior to 20 Gy RT) | histology: bone fill of wounds versus irradiated mice ([2]; pre-treated prior to irradiation) | hematopoietic cell survival and CFU-GEMM numbers (NOD/SCID mice) | concentration range of activity in cells (dose-dependent attenuation of ActD-induced PS externalization) [3] | radiation mitigation and protection (FIG. 15 survival curves) (mouse embryonic cells) | Do of gamma-irradiation survival curve [4] | n (shoulder on the survival curve) [4] |
| --- | --- | --- | --- | --- | --- | --- | --- | --- | --- | --- | --- | --- | --- | --- | --- | --- | --- | --- | --- |
| CC(C)C[C@@H](/C=C/CC(=O)NC1CC(C)(C)N([O])C(C)(C)C1)NC(=O)OC(C)(C)C [JP4-039, (S,E)-5-(tert-Butoxycarbonylamino)-7-methyloct-3-enoic acid-TEMPO] | 2.2±0.2 | no significant change | 2.3±0.2 | conferred more rapid healing | 1.02 ± 0.07 mm | 0.6±0.05 mm and 0.55±0.03 mm | 0.47 ± 0.04 mm | 0.23 ± 0.04 mm | 1.14 ± 0.04 mm | 0.92 ± 0.08 mm | 0.5±0.05 mm and 0.51±0.05 mm | 0.4±0.04 mm and 0.37±0.04 mm | ameliorated this RT-induced delay | more bone fill | further enhance hematopoietic cell survival and increase CFU-GEMM in numbers |  |  |  |  |
| CC(C)C[C@H](NC(=O)OC(C)(C)C)C(=O)N[C@H](Cc1ccccc1)C(=O)N1CCC[C@H]1C(=O)N[C@H](C(=O)N[C@@H](CCCNC(=O)OCc1ccccc1)C(=O)NC1CC(C)(C)N([O])C(C)(C)C1)C(C)C [XJB-5-125] (Boc-L[dF]PV[Orn](Cbz)-{NH(TEMPO-4-yl)}) |  |  |  |  |  |  |  |  |  |  |  |  |  |  |  | 2.5 to 20 µM | radiation mitigator as well as a protector | 1.138 Gy | 18.24 |
